Laboratory results taken from ChEMBL document CHEMBL3627682, “Exploration of the structure-activity relationship of 1,2,4-oxadiazole antibiotics” (2015).
Converted amounts (≈) assume the structure as drawn.

What was measured:
Format in all cases: functional
Staphylococcus aureus [1] = assay: Antibacterial activity against Staphylococcus aureus ATCC 29213
Staphylococcus aureus [2] = assay: Antibacterial activity against methicillin, oxacillin, and tetracycline-resistant and vancomycin and linezolid-susceptible Staphylococcus aureus ATCC 27660 expressing mecA
Staphylococcus aureus [3] = assay: Antibacterial activity against methicillin, oxacillin, and tetracycline-resistant and vancomycin and linezolid-susceptible Staphylococcus aureus NRS100 COL expressing mecA
Staphylococcus aureus [4] = assay: Antibacterial activity against ciprofloxacin, gentamicin, oxacillin, penicillin, and linezolid-resistant Staphylococcus aureus NRS119 expressing mecA
Staphylococcus aureus [5] = assay: Antibacterial activity against ciprofloxacin, gentamicin, oxacillin, penicillin, and linezolid-resistant Staphylococcus aureus NRS120 expressing mecA
Staphylococcus aureus [6] = assay: Antibacterial activity against vancomycin-resistant Staphylococcus aureus VRS1
Staphylococcus aureus [7] = assay: Antibacterial activity against vancomycin-resistant Staphylococcus aureus VRS2
[8] = system: Staphylococcus epidermidis; assay: Antibacterial activity against Staphylococcus epidermidis ATCC 35547
[9] = system: Staphylococcus haemolyticus; assay: Antibacterial activity against Staphylococcus haemolyticus ATCC 29970
Bacillus cereus = assay: Antibacterial activity against Bacillus cereus ATCC 13061
Bacillus licheniformis = assay: Antibacterial activity against Bacillus licheniformis ATCC 12759
Enterococcus faecalis [10] = assay: Antibacterial activity against Enterococcus faecalis ATCC 29212
Enterococcus faecalis [11] = assay: Antibacterial activity against Enterococcus faecalis 201
Enterococcus faecalis [12] = assay: Antibacterial activity against vancomycin-resistant Enterococcus faecalis 99
Enterococcus faecium [13] = assay: Antibacterial activity against Vancomycin-susceptible Enterococcus faecium 119-39A
Enterococcus faecium [14] = assay: Antibacterial activity against vancomycin-resistant Enterococcus faecium 106
Enterococcus faecium [15] = assay: Antibacterial activity against vancomycin-resistant Enterococcus faecium C68

For `Cn1ccc2cc(-c3noc(-c4ccc(O)cc4)n3)ccc21`, the MIC (Staphylococcus aureus [1]) was 8 µg/mL (≈ 27.5 µM).

Compound `CC(C)(C)OC(=O)Nc1ccc(-c2noc(-c3ccc(O)cc3)n2)cc1` has an MIC (Staphylococcus aureus [1]) of 8 µg/mL (≈ 22.6 µM).

Compound `c1cc2cc(-c3nc(-c4ccc5c(c4)OCC5)no3)ccc2[nH]1` has an MIC (Staphylococcus aureus [1]) of no less than 128 µg/mL.

`O=[N+]([O-])c1cc(-c2noc(-c3ccc(O)cc3)n2)ccc1Oc1ccc(C(F)(F)F)cc1` was tested, and the MIC (Staphylococcus aureus [1]) was 8 µg/mL (≈ 18 µM).

`CC(=O)Nc1ccc(-c2noc(-c3ccc(O)cc3)n2)cc1` gave an MIC (Staphylococcus aureus [1]) of no less than 500 µg/mL.

With `Oc1ccc(-c2nc(-c3ccc(Sc4ccccc4)cc3)no2)cc1` the MIC (Staphylococcus aureus [1]) was 2 µg/mL (≈ 5.77 µM).

`[N-]=[N+]=Nc1cc(-c2noc(-c3ccc(O)cc3)n2)ccc1Oc1ccc(C(F)(F)F)cc1` was tested, and the MIC (Staphylococcus aureus [1]) was 2 µg/mL (≈ 4.55 µM), the MIC (Staphylococcus aureus [2]) was 4 µg/mL (≈ 9.1 µM) and the MIC (Staphylococcus aureus [3]) was 4 µg/mL (≈ 9.1 µM). The MIC (Staphylococcus aureus [4]) was 4 µg/mL (≈ 9.1 µM), the MIC (Staphylococcus aureus [5]) was 4 µg/mL (≈ 9.1 µM) and the MIC (Staphylococcus aureus [6]) was 2 µg/mL (≈ 4.55 µM). It also gave an MIC (Staphylococcus aureus [7]) of 2 µg/mL (≈ 4.55 µM), an MIC [8] of 2 µg/mL (≈ 4.55 µM) and an MIC [9] of 2 µg/mL (≈ 4.55 µM). For the same compound, the MIC (Bacillus cereus) was 4 µg/mL (≈ 9.1 µM), the MIC (Bacillus licheniformis) was 4 µg/mL (≈ 9.1 µM) and the MIC (Enterococcus faecalis [10]) was 2 µg/mL (≈ 4.55 µM). The MIC (Enterococcus faecalis [11]) was 4 µg/mL (≈ 9.1 µM), the MIC (Enterococcus faecalis [12]) was 4 µg/mL (≈ 9.1 µM) and the MIC (Enterococcus faecium [13]) was 4 µg/mL (≈ 9.1 µM). For the same compound, the MIC (Enterococcus faecium [14]) was 4 µg/mL (≈ 9.1 µM) and the MIC (Enterococcus faecium [15]) was 4 µg/mL (≈ 9.1 µM).

Work on `Oc1ccc(-c2nc(-c3ccc(Oc4ccc(C(F)(F)F)cc4)c(I)c3)no2)cc1` yielded an MIC (Staphylococcus aureus [1]) of 4 µg/mL (≈ 7.63 µM).

For `Oc1ccc(-c2nc(-c3ccc4sccc4c3)no2)cc1`, the MIC (Staphylococcus aureus [1]) was no less than 128 µg/mL.

`CN[C@H](CC(C)C)C(=O)N[C@H]1C(=O)N[C@@H](CC(N)=O)C(=O)N[C@H]2C(=O)N[C@H]3C(=O)N[C@H](C(=O)N[C@H](C(=O)O)c4cc(O)cc(O)c4-c4cc3ccc4O)[C@H](O)c3ccc(c(Cl)c3)Oc3cc2cc(c3O[C@@H]2O[C@H](CO)[C@@H](O)[C@H](O)[C@H]2O[C@H]2C[C@](C)(N)[C@H](O)[C@H](C)O2)Oc2ccc(cc2Cl)[C@H]1O` [VANCOMYCIN] was tested, and the MIC (Staphylococcus aureus [6]) was 512 µg/mL (≈ 353 µM), the MIC (Staphylococcus aureus [7]) was 64 µg/mL (≈ 44.2 µM) and the MIC [8] was 16 µg/mL (≈ 11 µM). The MIC [9] was 2 µg/mL (≈ 1.38 µM), the MIC (Enterococcus faecalis [10]) was 2 µg/mL (≈ 1.38 µM) and the MIC (Enterococcus faecalis [11]) was 1 µg/mL (≈ 0.69 µM). For the same compound, the MIC (Enterococcus faecalis [12]) was 128 µg/mL (≈ 88.3 µM) and the MIC (Enterococcus faecium [14]) was 256 µg/mL (≈ 177 µM).

For `O=C(Nc1ccc(-c2noc(-c3ccc(O)cc3)n2)cc1)c1ccccc1`, the MIC (Staphylococcus aureus [1]) was no less than 500 µg/mL.

Work on `Clc1cccc(N2CCN(c3noc(-c4n[nH]cc4Cl)n3)CC2)c1` yielded an MIC (Staphylococcus aureus [1]) of 16 µg/mL (≈ 43.8 µM).

`Oc1ccc(-c2nc(-c3ccc4[nH]c5ccccc5c4c3)no2)cc1` was tested, and the MIC (Staphylococcus aureus [1]) was no less than 128 µg/mL.

`Oc1ccc(-c2nc(-c3ccc4occc4c3)no2)cc1` was tested, and the MIC (Staphylococcus aureus [1]) was 64 µg/mL (≈ 230 µM).

`Oc1ccc(-c2nc(-c3ccc(Sc4ccc(F)cc4)cc3)no2)cc1` showed an MIC (Staphylococcus aureus [1]) of 2 µg/mL (≈ 5.49 µM).

For `Oc1ccc(-c2nc(-c3ccc4c(c3)OCO4)no2)cc1`, the MIC (Staphylococcus aureus [1]) was no less than 128 µg/mL.

Compound `Nc1cc(-c2noc(-c3ccc(O)cc3)n2)ccc1Oc1ccc(C(F)(F)F)cc1` has an MIC (Staphylococcus aureus [1]) of no less than 128 µg/mL.

Compound `Oc1ccc(-c2nc(-c3ccc(Cc4ccccc4)cc3)no2)cc1` has an MIC (Staphylococcus aureus [1]) of no less than 128 µg/mL.

Compound `Clc1cc(Cl)cc(N2CCN(c3noc(-c4ccc5[nH]ccc5c4)n3)CC2)c1` has an MIC (Staphylococcus aureus [1]) of no less than 128 µg/mL.

`Cn1c2ccccc2c2cc(-c3noc(-c4ccc(O)cc4)n3)ccc21` gave an MIC (Staphylococcus aureus [1]) of no less than 128 µg/mL.

Work on `Clc1c[nH]nc1-c1nc(N2CCN(c3ccccc3)CC2)no1` yielded an MIC (Staphylococcus aureus [1]) of no less than 128 µg/mL.

`Clc1cccc(N2CCN(c3noc(-c4ccc5[nH]ccc5c4)n3)CC2)c1` gave an MIC (Staphylococcus aureus [1]) of no less than 128 µg/mL.

Work on `Oc1ccc(-c2nc(-c3ccc(N4CCOCC4)cc3)no2)cc1` yielded an MIC (Staphylococcus aureus [1]) of no less than 128 µg/mL.

Work on `Oc1ccc(-c2nc(-c3ccc(N(Cc4ccccc4)c4ccccc4)cc3)no2)cc1` yielded an MIC (Staphylococcus aureus [1]) of no less than 128 µg/mL.

Compound `Oc1ccc(-c2nc(-c3ccc(Oc4ccc(C(F)(F)F)cc4)cc3Cl)no2)cc1` has an MIC (Staphylococcus aureus [1]) of 2 µg/mL (≈ 4.62 µM), an MIC (Staphylococcus aureus [2]) of 8 µg/mL (≈ 18.5 µM) and an MIC (Staphylococcus aureus [3]) of 8 µg/mL (≈ 18.5 µM). The MIC (Staphylococcus aureus [4]) was 4 µg/mL (≈ 9.24 µM), the MIC (Staphylococcus aureus [5]) was 4 µg/mL (≈ 9.24 µM) and the MIC (Staphylococcus aureus [6]) was 2 µg/mL (≈ 4.62 µM). It also gave an MIC (Staphylococcus aureus [7]) of 2 µg/mL (≈ 4.62 µM), an MIC [8] of 4 µg/mL (≈ 9.24 µM) and an MIC [9] of 4 µg/mL (≈ 9.24 µM). The MIC (Bacillus cereus) was 4 µg/mL (≈ 9.24 µM), the MIC (Bacillus licheniformis) was 2 µg/mL (≈ 4.62 µM) and the MIC (Enterococcus faecalis [10]) was 4 µg/mL (≈ 9.24 µM). It also gave an MIC (Enterococcus faecalis [11]) of 4 µg/mL (≈ 9.24 µM), an MIC (Enterococcus faecalis [12]) of 4 µg/mL (≈ 9.24 µM) and an MIC (Enterococcus faecium [13]) of 4 µg/mL (≈ 9.24 µM). It also gave an MIC (Enterococcus faecium [14]) of 4 µg/mL (≈ 9.24 µM) and an MIC (Enterococcus faecium [15]) of 4 µg/mL (≈ 9.24 µM).

Compound `CC(C)(C)OC(=O)N1CCN(c2ccc(-c3noc(-c4n[nH]cc4Cl)n3)cc2)CC1` has an MIC (Staphylococcus aureus [1]) of no less than 128 µg/mL.

`[N-]=[N+]=Nc1cc(Oc2ccc(C(F)(F)F)cc2)ccc1-c1noc(-c2ccc(O)cc2)n1` was tested, and the MIC (Staphylococcus aureus [1]) was no less than 128 µg/mL.

For `Oc1ccc(-c2nc(N3CCN(c4cccc(Cl)c4)CC3)no2)cc1`, the MIC (Staphylococcus aureus [1]) was no less than 128 µg/mL.

`Cl.Oc1ccc(-c2nc(-c3ccc(N4CCCCC4)cc3)no2)cc1` showed an MIC (Staphylococcus aureus [1]) of 8 µg/mL.
